± gives the expanded uncertainty stated by the source.
Assay: molar heat capacity at constant volume; xn = mol fraction of the nth substance listed
Settings: Fluid (supercritical or subcritical phases), isochoric heat capacity, x1 = 0.2607

N [ammonia] + O
Settings	molar heat capacity at constant volume [J/K/mol]
605.3 K, Mass density=329 kg/m3	82.4 ± 3.3
605.39 K, Mass density=147.43 kg/m3	55.23 ± 2.2
605.39 K, Mass density=329 kg/m3	83.73 ± 3.4
605.47 K, Mass density=147.43 kg/m3	52.57 ± 2.1
605.56 K, Mass density=329 kg/m3	84.16 ± 3.4
605.64 K, Mass density=147.43 kg/m3	54.75 ± 2.2
605.73 K, Mass density=147.43 kg/m3	55.07 ± 2.2
605.82 K, Mass density=147.43 kg/m3	55.82 ± 2.2
605.9 K, Mass density=147.43 kg/m3	54.48 ± 2.2
606.33 K, Mass density=195.99 kg/m3	62.19 ± 2.5
606.41 K, Mass density=195.99 kg/m3	62.19 ± 2.5
606.41 K, Mass density=376.89 kg/m3	80.52 ± 3.2
606.5 K, Mass density=195.99 kg/m3	62.44 ± 2.5
606.58 K, Mass density=376.89 kg/m3	81.48 ± 3.3
606.66 K, Mass density=195.99 kg/m3	62.01 ± 2.5
606.67 K, Mass density=376.89 kg/m3	83.04 ± 3.3
606.75 K, Mass density=195.99 kg/m3	62.31 ± 2.5
606.76 K, Mass density=376.89 kg/m3	82.08 ± 3.3
606.84 K, Mass density=195.99 kg/m3	62.12 ± 2.5
606.84 K, Mass density=376.89 kg/m3	79.68 ± 3.2
607.69 K, Mass density=342.18 kg/m3	76.36 ± 3.1
607.78 K, Mass density=309.95 kg/m3	83.5 ± 3.3
607.78 K, Mass density=342.18 kg/m3	81.1 ± 3.3
607.86 K, Mass density=342.18 kg/m3	78.56 ± 3.2
607.86 K, Mass density=376.89 kg/m3	79.35 ± 3.2
607.87 K, Mass density=309.95 kg/m3	80.85 ± 3.2
607.95 K, Mass density=309.95 kg/m3	86.43 ± 3.5
607.95 K, Mass density=342.18 kg/m3	76.04 ± 3.1
607.95 K, Mass density=376.89 kg/m3	80.25 ± 3.2
608.04 K, Mass density=309.95 kg/m3	82.99 ± 3.3
608.04 K, Mass density=376.89 kg/m3	78.87 ± 3.2
608.12 K, Mass density=376.89 kg/m3	77.04 ± 3.1
608.19 K, Mass density=160.07 kg/m3	52.92 ± 2.1
608.21 K, Mass density=309.95 kg/m3	84.23 ± 3.4
608.21 K, Mass density=376.89 kg/m3	75.92 ± 3
608.29 K, Mass density=376.89 kg/m3	79.42 ± 3.2
608.38 K, Mass density=376.89 kg/m3	76.18 ± 3.1
608.4 K, Mass density=160.07 kg/m3	53.56 ± 2.1
608.54 K, Mass density=160.07 kg/m3	51.75 ± 2.1
608.63 K, Mass density=160.07 kg/m3	53.4 ± 2.1
608.72 K, Mass density=160.07 kg/m3	52.1 ± 2.1
608.81 K, Mass density=160.07 kg/m3	52.48 ± 2.1
608.9 K, Mass density=160.07 kg/m3	52.35 ± 2.1
609.06 K, Mass density=195.99 kg/m3	62.14 ± 2.5
609.14 K, Mass density=195.99 kg/m3	62.71 ± 2.5
609.23 K, Mass density=195.99 kg/m3	62.28 ± 2.5
609.3 K, Mass density=195.99 kg/m3	63.31 ± 2.5
609.4 K, Mass density=195.99 kg/m3	62.65 ± 2.5
609.4 K, Mass density=320.33 kg/m3	87.43 ± 3.5
609.48 K, Mass density=195.99 kg/m3	63.19 ± 2.5
609.48 K, Mass density=294.44 kg/m3	91.17 ± 3.6
609.48 K, Mass density=320.33 kg/m3	84.26 ± 3.4
609.57 K, Mass density=294.44 kg/m3	89.27 ± 3.6
609.57 K, Mass density=320.33 kg/m3	85.97 ± 3.4
609.65 K, Mass density=294.44 kg/m3	87.71 ± 3.5
609.65 K, Mass density=308.35 kg/m3	76.86 ± 3.1
609.65 K, Mass density=320.33 kg/m3	80.69 ± 3.3
609.74 K, Mass density=195.99 kg/m3	62.31 ± 2.5
609.74 K, Mass density=294.44 kg/m3	89.93 ± 3.6
609.74 K, Mass density=320.33 kg/m3	83.43 ± 3.3
609.82 K, Mass density=294.44 kg/m3	89.02 ± 3.6
609.82 K, Mass density=308.35 kg/m3	74.71 ± 3
609.91 K, Mass density=308.35 kg/m3	78.67 ± 3.2
609.99 K, Mass density=308.35 kg/m3	77.82 ± 3.1
610.08 K, Mass density=308.35 kg/m3	76.77 ± 3.1
610.17 K, Mass density=312.91 kg/m3	84.03 ± 3.4
610.25 K, Mass density=312.91 kg/m3	83.02 ± 3.3
610.33 K, Mass density=312.91 kg/m3	81.99 ± 3.3
610.42 K, Mass density=311.19 kg/m3	84.41 ± 3.4
610.42 K, Mass density=312.91 kg/m3	81.69 ± 3.3
610.51 K, Mass density=311.19 kg/m3	81.05 ± 3.2
610.51 K, Mass density=312.91 kg/m3	81.85 ± 3.3
610.53 K, Mass density=311.19 kg/m3	82.17 ± 3.3
610.59 K, Mass density=307.35 kg/m3	83.84 ± 3.4
610.59 K, Mass density=312.91 kg/m3	80.77 ± 3.2
610.68 K, Mass density=307.35 kg/m3	83.61 ± 3.3
610.76 K, Mass density=307.35 kg/m3	85.1 ± 3.4
610.77 K, Mass density=311.19 kg/m3	80 ± 3.2
610.84 K, Mass density=311.19 kg/m3	82.42 ± 3.3
610.85 K, Mass density=307.35 kg/m3	81.92 ± 3.3
610.93 K, Mass density=307.35 kg/m3	80.84 ± 3.2
611.02 K, Mass density=301.94 kg/m3	85.7 ± 3.4
611.02 K, Mass density=307.35 kg/m3	83.41 ± 3.3
611.1 K, Mass density=301.94 kg/m3	86.38 ± 3.5
611.1 K, Mass density=307.35 kg/m3	81.26 ± 3.2
611.19 K, Mass density=299.79 kg/m3	81.78 ± 3.3
611.23 K, Mass density=301.94 kg/m3	84.69 ± 3.4
611.27 K, Mass density=299.79 kg/m3	82.1 ± 3.3
611.35 K, Mass density=230.31 kg/m3	80.27 ± 3.2
611.35 K, Mass density=301.94 kg/m3	83.16 ± 3.3
611.36 K, Mass density=299.79 kg/m3	80.3 ± 3.2
611.44 K, Mass density=230.31 kg/m3	81.01 ± 3.2
611.44 K, Mass density=299.79 kg/m3	81.57 ± 3.3
611.44 K, Mass density=301.94 kg/m3	83.38 ± 3.3
611.52 K, Mass density=230.31 kg/m3	77.59 ± 3.1
611.53 K, Mass density=299.79 kg/m3	80.94 ± 3.2
611.57 K, Mass density=230.31 kg/m3	78.33 ± 3.1
611.61 K, Mass density=299.79 kg/m3	79.86 ± 3.2
611.61 K, Mass density=301.94 kg/m3	85.13 ± 3.4
611.8 K, Mass density=230.31 kg/m3	77.07 ± 3.1
612.29 K, Mass density=342.18 kg/m3	78.23 ± 3.1
612.46 K, Mass density=376.89 kg/m3	76.4 ± 3.1
612.55 K, Mass density=342.18 kg/m3	77.21 ± 3.1
612.55 K, Mass density=376.89 kg/m3	78.49 ± 3.1
612.63 K, Mass density=342.18 kg/m3	78.71 ± 3.1
612.63 K, Mass density=376.89 kg/m3	74.83 ± 3
612.8 K, Mass density=342.18 kg/m3	78.26 ± 3.1
612.8 K, Mass density=376.89 kg/m3	75.58 ± 3
612.89 K, Mass density=376.89 kg/m3	77.5 ± 3.1
615.18 K, Mass density=160.07 kg/m3	57.18 ± 2.3
615.27 K, Mass density=160.07 kg/m3	57.36 ± 2.3
615.35 K, Mass density=160.07 kg/m3	59.17 ± 2.4
615.52 K, Mass density=160.07 kg/m3	57.77 ± 2.3
615.61 K, Mass density=160.07 kg/m3	57.15 ± 2.3
615.69 K, Mass density=160.07 kg/m3	58.32 ± 2.3
615.78 K, Mass density=160.07 kg/m3	59.81 ± 2.4
615.86 K, Mass density=311.19 kg/m3	80.59 ± 3.2
615.94 K, Mass density=311.19 kg/m3	82.26 ± 3.3
615.94 K, Mass density=312.91 kg/m3	84.14 ± 3.4
616.03 K, Mass density=311.19 kg/m3	78.26 ± 3.1
616.03 K, Mass density=312.91 kg/m3	81.62 ± 3.3
616.2 K, Mass density=309.95 kg/m3	81.9 ± 3.3
616.2 K, Mass density=311.19 kg/m3	79.08 ± 3.2
616.2 K, Mass density=312.91 kg/m3	78.12 ± 3.1
616.24 K, Mass density=329 kg/m3	79.1 ± 3.2
616.28 K, Mass density=309.95 kg/m3	81.26 ± 3.2
616.29 K, Mass density=312.91 kg/m3	77.14 ± 3.1
616.37 K, Mass density=309.95 kg/m3	80.5 ± 3.2
616.37 K, Mass density=311.19 kg/m3	78.05 ± 3.1
616.37 K, Mass density=312.91 kg/m3	80.69 ± 3.2
616.45 K, Mass density=309.95 kg/m3	78.62 ± 3.2
616.45 K, Mass density=329 kg/m3	75.46 ± 3
616.54 K, Mass density=329 kg/m3	77.16 ± 3.1
616.55 K, Mass density=309.95 kg/m3	82.93 ± 3.3
616.62 K, Mass density=329 kg/m3	76.27 ± 3.1
616.69 K, Mass density=299.79 kg/m3	82.29 ± 3.3
616.71 K, Mass density=329 kg/m3	76.77 ± 3.1
616.84 K, Mass density=299.79 kg/m3	80.34 ± 3.2
616.95 K, Mass density=299.79 kg/m3	81.41 ± 3.2
617.05 K, Mass density=299.79 kg/m3	82.13 ± 3.3
617.13 K, Mass density=299.79 kg/m3	79.98 ± 3.2
617.31 K, Mass density=299.79 kg/m3	80.5 ± 3.2
617.46 K, Mass density=299.79 kg/m3	80.93 ± 3.2
618.23 K, Mass density=342.18 kg/m3	78.08 ± 3.1
618.32 K, Mass density=342.18 kg/m3	77.48 ± 3.1
618.5 K, Mass density=342.18 kg/m3	78.3 ± 3.1
618.57 K, Mass density=342.18 kg/m3	78.49 ± 3.1
618.66 K, Mass density=342.18 kg/m3	76.77 ± 3.1
619.76 K, Mass density=297.6 kg/m3	76.26 ± 3.1
619.93 K, Mass density=297.6 kg/m3	75.1 ± 3
620.01 K, Mass density=297.6 kg/m3	77.64 ± 3.1
620.1 K, Mass density=297.6 kg/m3	76.82 ± 3.1
624.74 K, Mass density=160.07 kg/m3	61.66 ± 2.5
624.83 K, Mass density=160.07 kg/m3	63.49 ± 2.5
624.99 K, Mass density=160.07 kg/m3	62.99 ± 2.5
625.08 K, Mass density=160.07 kg/m3	60.95 ± 2.4
625.16 K, Mass density=160.07 kg/m3	64.25 ± 2.6
633.07 K, Mass density=160.07 kg/m3	67.64 ± 2.7
633.16 K, Mass density=160.07 kg/m3	68.71 ± 2.8
633.33 K, Mass density=160.07 kg/m3	67.18 ± 2.7
633.49 K, Mass density=160.07 kg/m3	68.49 ± 2.7
633.58 K, Mass density=160.07 kg/m3	67.41 ± 2.7
633.66 K, Mass density=160.07 kg/m3	67.98 ± 2.7
